Source: US8987192B2, “Potent and selective mediators of cholesterol efflux” (The Regents of the University of California, priority 2006, dated 2015)
“Also recorded” adds a separate entry of the source.

Tests used:
[1] = tested on: ABCA1; assay: Cholesterol efflux in the absence and presence of ABCA1 (mouse macrophages and HeLa cells transfected with ABCA1 cDNA); assay type: cell-based; conditions: 8 hours, saturating peptide >30-fold Km
Source text: The large excess of polypeptide was provided to determine the extent (if any) of non-specific efflux, in the absence of ABCA1 induction.

[2] = tested on: Apolipoprotein E deficient (Apo E −/−) mice; assay: Established atherosclerosis in Apo E -/- mice on high-fat diet (Example 18); assay type: in vivo, mouse; conditions: 10 mg/kg IP at 2-day intervals
Experimental: Male Apolipoprotein E deficient (Apo E −/−) mice (six-weeks of age) were fed a high-fat diet for 26 weeks. During the last 6 weeks on the high-fat diet, the mice received intraperitoneal (IP) injections of either saline or the polypeptide of SEQ ID NO:4 (10 mg/kg) at 2-day intervals. […] The effect of the polypeptide reducing established atherosclerosis was highly significant, as judged by the lipid-content of plaques in the aortic sinus (see, FIG. 18). This was accomplished using the lipid-free polypeptide of SEQ ID NO:4 composed of all L-amino acids administered in the continued presence of the dietary insult.

[3] = tested on: Interleukin-6; assay: Serum Interleukin-6 in ApoE -/- mice (fluorescent bead immunoassay); assay type: in vivo, mouse
Source text: Apolipoprotein E deficient (ApoE −/−) mice at 6 weeks old were given a Western diets for 18 weeks before commencing treatment. Once daily, intraperitoneal injections were given as saline or the polypeptide of SEQ ID NO:4 (n=6-7 per group). At termination, serum was collected and analyzed for Interleukin-6 concentration by a fluorescent bead immunoassay utilizing flow cytometry (BMS820FF). Mice treated with the polypeptide of SEQ ID NO:4 had about 68% lower serum levels of IL-6 (see, FIG. 22).

[4] = target: T1, ABCA1 (Mus musculus, UniProt P41233); assay: ABCA1 protein stabilization in J774 macrophages (Western blot); assay type: cell-based; design: endogenous in cells; host or cells: J774 mouse macrophages; conditions: 6 hours serum-free medium, no cAMP
T1 sequence (P41233 whole entry): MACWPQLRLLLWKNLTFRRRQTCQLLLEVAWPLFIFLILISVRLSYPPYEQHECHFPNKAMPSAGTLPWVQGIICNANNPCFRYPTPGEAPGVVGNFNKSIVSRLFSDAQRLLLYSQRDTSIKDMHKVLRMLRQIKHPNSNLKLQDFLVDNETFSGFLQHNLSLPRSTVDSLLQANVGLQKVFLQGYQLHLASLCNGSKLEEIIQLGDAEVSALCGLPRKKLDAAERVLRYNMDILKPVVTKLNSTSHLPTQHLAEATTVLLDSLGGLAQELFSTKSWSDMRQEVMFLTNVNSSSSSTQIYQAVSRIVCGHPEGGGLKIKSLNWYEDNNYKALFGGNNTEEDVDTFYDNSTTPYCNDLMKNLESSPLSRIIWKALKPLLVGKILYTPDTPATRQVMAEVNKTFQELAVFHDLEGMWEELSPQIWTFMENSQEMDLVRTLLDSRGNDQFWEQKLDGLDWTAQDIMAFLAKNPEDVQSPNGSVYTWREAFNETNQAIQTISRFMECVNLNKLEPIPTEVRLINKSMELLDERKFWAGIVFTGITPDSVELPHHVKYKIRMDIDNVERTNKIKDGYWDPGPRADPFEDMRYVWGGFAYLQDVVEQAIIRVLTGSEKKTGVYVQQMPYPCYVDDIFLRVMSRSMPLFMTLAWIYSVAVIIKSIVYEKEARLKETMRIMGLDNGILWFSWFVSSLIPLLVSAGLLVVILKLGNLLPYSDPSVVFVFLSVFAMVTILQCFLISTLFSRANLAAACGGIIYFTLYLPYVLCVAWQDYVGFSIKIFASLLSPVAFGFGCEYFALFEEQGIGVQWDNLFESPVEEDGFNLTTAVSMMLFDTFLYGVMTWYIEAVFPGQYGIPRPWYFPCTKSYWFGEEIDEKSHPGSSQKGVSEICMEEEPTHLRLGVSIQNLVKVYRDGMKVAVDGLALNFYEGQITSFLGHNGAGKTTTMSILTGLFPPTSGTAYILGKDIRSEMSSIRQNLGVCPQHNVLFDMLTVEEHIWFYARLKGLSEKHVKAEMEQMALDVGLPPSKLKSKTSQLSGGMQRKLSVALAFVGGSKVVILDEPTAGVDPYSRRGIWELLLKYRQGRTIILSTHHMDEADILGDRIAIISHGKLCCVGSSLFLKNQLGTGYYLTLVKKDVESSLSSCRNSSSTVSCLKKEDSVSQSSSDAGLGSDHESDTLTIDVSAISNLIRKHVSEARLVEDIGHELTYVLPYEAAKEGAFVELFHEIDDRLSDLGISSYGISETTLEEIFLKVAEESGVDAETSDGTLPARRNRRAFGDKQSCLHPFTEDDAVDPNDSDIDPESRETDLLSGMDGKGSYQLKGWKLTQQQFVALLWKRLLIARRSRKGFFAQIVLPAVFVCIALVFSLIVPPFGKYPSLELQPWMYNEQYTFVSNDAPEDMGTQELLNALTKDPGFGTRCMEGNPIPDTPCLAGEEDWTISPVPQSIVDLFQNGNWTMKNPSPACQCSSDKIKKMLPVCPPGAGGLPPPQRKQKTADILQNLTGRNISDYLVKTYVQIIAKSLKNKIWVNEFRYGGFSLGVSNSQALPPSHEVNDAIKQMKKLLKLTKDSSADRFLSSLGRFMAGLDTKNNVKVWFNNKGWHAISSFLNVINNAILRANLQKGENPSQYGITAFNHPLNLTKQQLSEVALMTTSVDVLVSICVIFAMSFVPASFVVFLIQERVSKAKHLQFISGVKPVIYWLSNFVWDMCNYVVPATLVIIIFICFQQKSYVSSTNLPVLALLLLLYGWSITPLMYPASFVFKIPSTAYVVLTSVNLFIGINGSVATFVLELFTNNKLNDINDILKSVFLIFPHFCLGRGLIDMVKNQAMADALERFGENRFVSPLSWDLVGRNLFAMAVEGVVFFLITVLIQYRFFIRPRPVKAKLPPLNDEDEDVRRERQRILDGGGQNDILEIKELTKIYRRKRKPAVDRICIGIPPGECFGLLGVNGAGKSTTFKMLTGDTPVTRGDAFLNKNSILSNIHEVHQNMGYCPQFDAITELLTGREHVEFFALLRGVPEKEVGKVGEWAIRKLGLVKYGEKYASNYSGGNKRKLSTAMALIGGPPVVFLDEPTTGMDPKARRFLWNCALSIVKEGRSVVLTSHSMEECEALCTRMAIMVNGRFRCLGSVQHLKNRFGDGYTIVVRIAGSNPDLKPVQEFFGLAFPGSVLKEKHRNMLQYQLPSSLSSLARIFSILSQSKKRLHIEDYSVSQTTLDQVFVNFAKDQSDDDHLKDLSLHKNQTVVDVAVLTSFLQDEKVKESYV
Experimental: In some embodiments, the stabilization of ABCA is measured by direct measurement of ABCA (e.g., ABCA protein, or nucleic acid) using a cell based assay. Cell based assays can be performed in any cells in which ABCA is expressed (e.g., J774 macrophages), including cells which have been transfected with ABCA (e.g. HeLa cells). Any cell type can be used. For example, J774 macrophages can be used to assess relative ABCA1 protein levels in the presence and absence of polypeptides of the invention. The cells are first contacted with a compound that will induce ABCA (e.g., cAMP or a cAMP analogue such as, 8-bromo-cAMP) to upregulate ABCA (e.g., ABCA1) expression, then exposed to […] polypeptides of the invention in the absence of the cAMP stimulus to evaluate whether ABCA1 protein was stabilized or degraded. Relative levels of ABCA1 protein can be assessed using any means known in the art including, e.g., immunoblot analysis of cell membranes (Oram et al., J. Biol. Chem., 278:52379-52385 (2003)) or hybridization of nucleic acid probes to ABCA mRNA.
To test whether the polypeptides of the present invention stabilize cellular ABCA1 protein concentrations, J774 mouse macrophages were treated with a cAMP analogue (24 h) to upregulate ABCA1 expression. […] ABCA1 protein in cell lysates was determined by Western blot analysis. […]

[5] = target: T1, ABCA1; assay: Cholesterol efflux from [3H]cholesterol-labeled ABCA1-expressing J774 mouse macrophages; assay type: cell-based; design: to upregulate cellular ABCA1 protein; endogenous in cells; host or cells: J774 mouse macrophages

EVRSKLEEWFAAFREFAEEFLARLKS (ATI-5261 amphipathic alpha-helix polypeptide core sequence selectively binds HDL, high-affinity ligand for ATP-binding cassette transporter A1 (ABCA1), ABCA1-lipid cholesterol efflux, ABCA1-stablization, anti-oxidant and anti- inflammatory activity) [SEQ ID NO:4]
non-specific efflux activity in the absence of ABCA1 [1]: minimal | requirement of ABCA1 for cholesterol efflux activity ([1]; mouse macrophages and ABCA1-transfected HeLa): required ABCA1 for efflux activity | effect on established atherosclerosis (in words) ([2]; 6 weeks): reduced aortic plaque lipid content; also recorded: significantly reduced established atherosclerosis | greater atherosclerosis in saline control mice compared to treated mice ([2]; last 6 weeks of 26 weeks high-fat diet, lipid-content of aortic sinus plaques): 38% | serum IL-6 versus saline (in words) ([3]; mouse, in vivo): lowered levels of the inflammatory cytokine IL-6 | lower serum levels of IL-6 ([3]; once daily IP, vs saline, after 18 weeks Western diet): about 68% | ABCA1 protein in cell lysates after cAMP withdrawal [4]: prevented the disappearance of ABCA1 protein | cholesterol efflux efficiency/potency on per molecule (molar) basis versus apolipoproteins ([5]; Km in molar units): molar potency similar to that of apolipoproteins; also recorded: activity similar to full-length Apo A-I, Apo E, and the C-terminal (CT) domain of Apo E | cholesterol efflux at low mass concentrations ([5]; increasing concentrations based on mass): relatively high-levels of cholesterol efflux | more potent than ApoA-I in stimulating cholesterol efflux ([5]; mass basis, over working concentration range): at least 300%
